A word on the inhibition: it is the drop in the measured response relative to a control, in per cent. The low end stands for little suppression, the high end for strong suppression.

Consider 63 molecules from patent publication US20050261290A1, “Novel compounds of proline and morpholine derivatives” (priority 2004, published 2005).

The test concerns the target human 11b-hsd-1 (Homo sapiens, UniProt P28845). In words: Inhibition constant Ki of human 11b-hsd-1 (3H-cortisone to 3H-cortisol conversion, HPLC). Particulars: for Ki: apparent Ki, read-out: Ki app. It is filed as biochemical.

Where two headings read alike, the source gives them in different places.

human 11b-hsd-1, sequence (P28845 whole entry): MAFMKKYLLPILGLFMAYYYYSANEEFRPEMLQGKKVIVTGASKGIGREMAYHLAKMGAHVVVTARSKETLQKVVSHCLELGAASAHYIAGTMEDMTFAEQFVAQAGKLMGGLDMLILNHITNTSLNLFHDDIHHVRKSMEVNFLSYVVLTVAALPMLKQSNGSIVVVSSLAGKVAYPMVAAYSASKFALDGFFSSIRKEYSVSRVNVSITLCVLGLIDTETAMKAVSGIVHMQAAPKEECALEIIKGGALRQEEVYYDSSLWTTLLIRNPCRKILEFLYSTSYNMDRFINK
Procedure: In each well, varying amounts of compounds are incubated with a fixed amount of 11b-hsd-1 (4 nM) and NADPH (500 μM) for 30 to 40 min at room temperature in the assay buffer. The enzyme concentration was determined by titration using reversible tight-binding inhibitors. […] The area of 3H-cortisol is calculated and plotted versus time to determine a linear velocity. […] Where vi, and vo are the rates of cortisol formation in the presence and in the absence of inhibitor, respectively, I is the inhibitor concentration and E is the 11 b-hsd-1 concentration in the assay buffer. […] NADPH, Glucose-6-Phosphate (G6P), and Glucose-6-Phosphate dehydrogenase was purchased from Sigma.

In turn, `COC(C)(C)CN1CCC[C@@H]1C(=O)NC1C2CC3CC(C2)CC1C3` (some centres unmarked) [Example 120] gave an inhibition at 0.1 µM (compound at 0.1 μM) of 100%. With `N#Cc1ccccc1CN1CCOC[C@@H]1C(=O)N[C@@H]1CCc2ccccc21` [Example 305], the Ki amounted to 3.4 nM. Further, 0.1 µM produced 98.7% inhibition (0.1 μM compound). `O=C(NC1C2CC3CC(C2)CC1C3)[C@H]1CCCN1C[C@@H]1CCCN1` (some centres unmarked) [Example 141] had an inhibition at 0.1 µM (compound at 0.1 μM) of 76%. Consider `O=C(NCc1c(F)cccc1F)[C@H]1CCCN1CC1CCCC1` [Example 241], for which the Ki stood at 32 nM. At 0.1 µM the inhibition (0.1 μM compound) was 81.4%. Turning to `CC(C)CN1CCC[C@@H]1C(=O)NCc1ccccc1` [Example 4], the Ki (human 11b-hsd-1) turned out to be 3.6 nM. The molecule further gave an inhibition at 0.1 µM (compound at 0.1 μM) of 94%. Under “compound at 0.1 μM”, `CCN1CCC(CN2CCOC[C@@H]2C(=O)NC2C3CC4CC(C3)CC2C4)CC1` (some centres unmarked) [Example 75] gave an inhibition at 0.1 µM of 91%. Take `CC(C)CN1C[C@H](O)C[C@H]1C(=O)NC12CC3CC(CC(C3)C1)C2` [Example 207]: the Ki is 11 nM. Also, the inhibition at 0.1 µM (0.1 μM compound) was 92.1%. As to `O=C(NC1C2CC3CC(C2)CC1C3)[C@H]1C[C@@H](O)CN1CC1CCOCC1` (some centres unmarked) [Example 48], the inhibition at 0.1 µM (compound at 0.1 μM) was 83%.

In the case of `O=C(NC1CCCCC1)[C@@H]1C[C@H](Oc2ccc(Cl)cc2)CN1` [Example 370], the Ki came out at 10 nM. In addition, where the note is “0.1 μM compound”, the inhibition at 0.1 µM came out at 88.7%.

Consider `CC(C)CN1CCC[C@@H]1C(=O)NCc1ccc(Cl)cc1` [Example 221], for which the Ki turned out to be 5.9 nM. The molecule further came in with an inhibition at 0.1 µM (0.1 μM compound) of 95.7%. On the same counts, the results for `CC(C)CN1CCC[C@@H]1C(=O)NCc1cccc(F)c1` [Example 237] are 10.3 nM and 100%. Consider `CC1(C)CC(NC(=O)C2COCCN2CC2CCCCC2)CC(C)(C)C1` (centres unmarked) [Example 188], for which the Ki (human 11b-hsd-1) was found to be 1.7 nM. This molecule registered an inhibition at 0.1 µM (compound at 0.1 μM) of 100%. Regarding `Cc1cc(F)ccc1O[C@@H]1CN[C@H](C(=O)NC2C3CC4CC(C3)CC2C4)C1` (some centres unmarked) [Example 356], the Ki worked out at 1.4 nM. In addition, the inhibition at 0.1 µM (0.1 μM compound) worked out at 100%. For `Cc1cccc(O[C@@H]2CN[C@H](C(=O)NC3C4CC5CC(C4)CC3C5)C2)c1` (some centres unmarked) [Example 348], in that order: 2.7 nM and 100%. As for `O=C(NC12CC3CC(CC(C3)C1)C2)[C@H]1CCCN1CC(F)(F)F` [Example 22], the Ki (human 11b-hsd-1) was 0.85 nM. In addition, at 0.1 µM the inhibition (compound at 0.1 μM) was 100%. For `O=C(NCc1ccccc1F)[C@H]1CCCN1Cc1ccccc1` [Example 212], the Ki turned out to be 85 nM. Further, the inhibition at 0.1 µM (0.1 μM compound) was 77.6%. `O=C(NC1CCCCC1)[C@H]1CCCN1CCC(F)(F)F` [Example 127] gave an inhibition at 0.1 µM (compound at 0.1 μM) of 100%. Still for that read-out and setting: the figure for `O=C(NCc1ccccc1)[C@@H]1CCCN1CC1CCCCC1` [Example 5, N-benzyl-1-(cyclohexylmethyl)-L-prolinamide] is 29%. Consider `N#Cc1ccc(CN2CCC[C@@H]2C(=O)N[C@@H]2CCc3ccccc32)cc1` [Example 285], for which the Ki is 7.82 nM. Moreover, the inhibition at 0.1 µM (0.1 μM compound) worked out at 100%. Turning to `Cc1ccccc1CNC(=O)[C@H]1CCCN1CCC(F)(F)F` [Example 264], the Ki amounted to 10 nM. The inhibition at 0.1 µM (0.1 μM compound) stood at 86.5%. On the same counts, the results for `O=C(NC1C2CC3CC(C2)CC1C3)[C@@H]1C[C@H](Oc2ccccc2F)CN1` (some centres unmarked) [Example 341] are 0.7 nM and 100%.

As for `CCOc1ccccc1CNC(=O)[C@H]1CCCN1CC1CCCC1` [Example 54], the Ki (human 11b-hsd-1) stood at 13.2 nM. Also, 0.1 µM produced 94% inhibition (compound at 0.1 μM).

Consider `O=C(NC12CC3CC(CC(C3)C1)C2)[C@H]1CCCN1Cc1ccccc1` [Example 248], for which the Ki stood at 1.3 nM. The same molecule displayed an inhibition at 0.1 µM (0.1 μM compound) of 100%. As for `O=C(NCc1ccc(Cl)cc1)[C@H]1CCCN1CC1CCCCC1` [Example 13], under “human 11b-hsd-1”, the Ki came to 1 nM. Besides, the inhibition at 0.1 µM (compound at 0.1 μM) was found to be 85%.

Turning to `CC(C)CN1CCC[C@@H]1C(=O)NCc1ccccc1Cl` [Example 257], the Ki was 2.1 nM. Under “0.1 μM compound”, this molecule showed an inhibition at 0.1 µM of 100%. On the same counts, the results for `O=C(NC1C2CC3CC(C2)CC1C3)[C@@H]1C[C@H](Oc2ccccc2Cl)CN1` (some centres unmarked) [Example 360] are 1.4 nM and 100%.

Consider `CN1CCC[C@@H]1C(=O)NC12CC3CC(CC(C3)C1)C2` [Example 20], for which the Ki (human 11b-hsd-1) is 23.3 nM. In addition, under “compound at 0.1 μM”, the inhibition at 0.1 µM came to 72%. As to `O=C(N[C@@H]1CCCc2ccccc21)[C@H]1COCCN1CC1CCCC1` [Example 318], the Ki was 13 nM. Also, under “0.1 μM compound”, the inhibition at 0.1 µM turned out to be 84.8%.

With `O=C(NC1C2CC3CC(C2)CC1C3)[C@H]1NCC[C@@H]1c1ccc(Cl)cc1` (some centres unmarked) [Example 367], the Ki was 7.5 nM. The molecule also returned an inhibition at 0.1 µM (0.1 μM compound) of 93.5%.

For the molecule `O=C(NC1C2CC3CC(C2)CC1C3)[C@H]1CCCNC1` (some centres unmarked) [Example 121, Piperidine-3-carboxylic acid adamantan-2-ylamide], the inhibition at 0.1 µM (compound at 0.1 μM) was 17%.

On to `O=C(NCc1ccc(F)cc1)[C@H]1CCCN1Cc1ccccc1Cl` [Example 232], for which the Ki came out at 47 nM. Moreover, the inhibition at 0.1 µM (0.1 μM compound) stood at 71.5%. With `CCCCN1CCC[C@@H]1C(=O)NC1CCCCC1` [Example 100], the Ki (human 11b-hsd-1) stood at 4 nM. Besides, at 0.1 µM the inhibition (compound at 0.1 μM) was 100%. As to `CN(C(=O)[C@@H]1CSCN1Cc1ccc(Cl)cc1)C1CCCCC1` [Example 192], the Ki came to 9.6 nM. This molecule also returned an inhibition at 0.1 µM (0.1 μM compound) of 100%.

Regarding `COc1ccccc1CNC(=O)[C@H]1CCCN1Cc1ccc(Cl)cc1` [Example 267], the Ki amounted to 12 nM. This molecule displayed an inhibition at 0.1 µM (0.1 μM compound) of 100%. On the same counts, the results for `O=C(NCc1ccccc1)[C@H]1CCCN1CC1CC1` [Example 224] are 189 nM and 90%. Take `CCC(C)N1CCC[C@@H]1C(=O)NC1CCCCC1` (some centres unmarked) [Example 105]: the Ki (human 11b-hsd-1) turned out to be 15 nM. Also, under “compound at 0.1 μM”, testing at 0.1 µM gave an inhibition of 82%. Molecule `C[C@@H](CN1CCC[C@@H]1C(=O)NC1C2CC3CC(C2)CC1C3)NC(=O)OC(C)(C)C` (some centres unmarked) [Example 154] showed an inhibition at 0.1 µM (compound at 0.1 μM) of 96%. As for `O=C(NC12CC3CC(CC(C3)C1)C2)C1COCCN1CC1CCCC1` (centres unmarked) [Example 183], the Ki (human 11b-hsd-1) was found to be 2.1 nM. This molecule showed an inhibition at 0.1 µM (compound at 0.1 μM) of 100%. On to `CC(C)CN1CCOC[C@@H]1C(=O)N(C)C1CCCCC1` [Example 333], for which the Ki came to 4 nM. The molecule also displayed an inhibition at 0.1 µM (0.1 μM compound) of 100%. For the molecule `CCCN1CCC[C@@H]1C(=O)NC1CC2CCC1C2` (some centres unmarked) [Example 92], the “% inh @ 0.1 μM” value (compound at 0.1 μM) amounted to 100%. Under “compound at 0.1 μM”, `CCCN1CCC[C@@H]1C(=O)NC1CC2CCC1C2` (some centres unmarked) [Example 91] had an inhibition at 0.1 µM of 100%. In the case of `O=C(NCc1ccc(Cl)cc1)[C@H]1CCCN1Cc1ccccc1` [Example 213], the Ki came out at 120 nM. Besides, the inhibition at 0.1 µM (0.1 μM compound) stood at 78%.

For the molecule `CC(C)CN1CCOC[C@@H]1C(=O)NCc1ccccc1` [Example 278], the Ki turned out to be 49.2 nM. This molecule also had an inhibition at 0.1 µM (0.1 μM compound) of 76%. With `O=C(NC1CCc2ccccc21)[C@H]1CCCN1CC1CCCC1` (some centres unmarked) [Example 39], under “human 11b-hsd-1”, the Ki was under 1 nM. Under “compound at 0.1 μM”, this molecule had an inhibition at 0.1 µM of 100%. `O=C(N[C@H]1c2ccccc2C[C@H]1O)[C@H]1COCCN1CC1CCCC1` [Example 310]: the Ki worked out at 29.5 nM. For the same molecule, the inhibition at 0.1 µM (0.1 μM compound) is 92%. For `O=C(NC1C2CC3CC(C2)CC1C3)[C@@H]1C[C@H](Oc2ccc(F)c(F)c2F)CN1` (some centres unmarked) [Example 355], the Ki worked out at 1 nM. Testing at 0.1 µM (0.1 μM compound) gave an inhibition of 100%. On the same counts, the results for `O=C(NCc1ccc(Cl)cc1)[C@H]1CCCN1CC1CCCC1` [Example 227] are 36 nM and 80.3%. For `COc1ccccc1CNC(=O)[C@H]1CCCN1CCc1ccccc1` [Example 269], in that order: 66 nM and 77.8%.

Regarding `CCC1CCCCN1C(=O)[C@H]1CSCN1Cc1ccc(Cl)cc1` (some centres unmarked) [Example 198], the Ki is 2.5 nM. This molecule also showed an inhibition at 0.1 µM (0.1 μM compound) of 100%.

Consider `CCCN1CCC[C@@H]1C(=O)N[C@@H]1CCCc2ccccc21` [Example 56], for which, for the setting “human 11b-hsd-1”, the Ki is 8 nM. For the setting “compound at 0.1 μM”, this molecule had an inhibition at 0.1 µM of 92%. As to `CCc1ccc(O[C@@H]2CN[C@H](C(=O)NC3C4CC5CC(C4)CC3C5)C2)c(OC)c1` (some centres unmarked) [Example 354], the Ki was found to be 2.1 nM. Also, at 0.1 µM the inhibition (0.1 μM compound) was 100%.

Regarding `CC(C)CN1CCC[C@@H]1C(=O)NC1CCCCC1` [Example 86], the Ki (human 11b-hsd-1) was under 1 nM. Under “compound at 0.1 μM”, this molecule displayed an inhibition at 0.1 µM of 100%. Consider `CCCN1CCC[C@@H]1C(=O)NC12CC3CC(CC(C3)C1)C2` [Example 21], for which, where the note is “human 11b-hsd-1”, the Ki was 1.2 nM. This molecule returned an inhibition at 0.1 µM (compound at 0.1 μM) of 100%. The molecule `O=C(NC1CCCCC1)[C@H]1C[C@@H](O)CN1CC1CCCC1` [Example 30] came in with an inhibition at 0.1 µM (compound at 0.1 μM) of 63%. Consider `O=C(NC1CCCCC1)[C@H]1CCCN1CC1CCCO1` (some centres unmarked) [Example 98], for which the “% inh @ 0.1 μM” value (compound at 0.1 μM, 0.1 µM) is reported as 41%.

Regarding `CC1(C)CC(NC(=O)C2COCCN2Cc2cccc(C#N)c2)CC(C)(C)C1` (centres unmarked) [Example 187], the Ki (human 11b-hsd-1) was determined as 3 nM. This molecule also registered an inhibition at 0.1 µM (compound at 0.1 μM) of 100%. Turning to `COc1ccccc1CNC(=O)[C@H]1CCCN1CCC(F)(F)F` [Example 263], the Ki worked out at 62 nM. 0.1 µM produced 77.5% inhibition (0.1 μM compound). On the same counts, the results for `O=C(NC1C2CC3CC(C2)CC1C3)[C@@H]1C[C@H](Oc2ccc(F)cc2)CN1` (some centres unmarked) [Example 321] are 1 nM and 100%.

Under “compound at 0.1 μM”, `CN(C)CCN1CCOC[C@@H]1C(=O)NC1C2CC3CC(C2)CC1C3` (stereo partly drawn) [Example 44, (3R)-N-2-adamantyl-4-[2-(dimethylamino)ethyl]morpholine-3-carboxamide] displayed an inhibition at 0.1 µM of 59.4%. The molecule `CC(C)CN1CCOC[C@@H]1C(=O)NCc1cccc(F)c1` [Example 33] gave an inhibition at 0.1 µM (compound at 0.1 μM) of 65%.

As for `O=C(NCc1ccc(F)cc1)[C@H]1CCCN1CC1CCCC1` [Example 228], the Ki turned out to be 54 nM. 0.1 µM produced 89.3% inhibition (0.1 μM compound). `O=C(NC1CCCCC1)[C@@H]1C[C@H](Oc2c(F)cc(F)cc2F)CN1` [Example 372] showed an inhibition at 0.1 µM (0.1 μM compound) of 97.4%. For the setting “compound at 0.1 μM”, `O=C(NC1C2CC3CC(C2)CC1C3)[C@H]1CCCN1CC1CCNC1` (some centres unmarked) [Example 142] displayed an inhibition at 0.1 µM of 100%.
